Experimental data: patent US4910302A, “Psychotropic polycyclic imides” (American Home Products Corporation, priority 1988, dated 1990)

Legend:
5-HT1A receptor = details: cited from earlier work
[1] = molecular target: T1, serotonin 5-HT1A receptor (Rattus norvegicus, UniProt P19327); experiment: serotonin 5-HT1A receptor binding, displacement of [3H] 8-OHDPAT; set-up: following the procedure of Hall et al., J. Neurochem; 44 1685 (1985); from tissue; details: for inhibition at 0.1 µM: as marked beside the value
T1 sequence (P19327 1-422): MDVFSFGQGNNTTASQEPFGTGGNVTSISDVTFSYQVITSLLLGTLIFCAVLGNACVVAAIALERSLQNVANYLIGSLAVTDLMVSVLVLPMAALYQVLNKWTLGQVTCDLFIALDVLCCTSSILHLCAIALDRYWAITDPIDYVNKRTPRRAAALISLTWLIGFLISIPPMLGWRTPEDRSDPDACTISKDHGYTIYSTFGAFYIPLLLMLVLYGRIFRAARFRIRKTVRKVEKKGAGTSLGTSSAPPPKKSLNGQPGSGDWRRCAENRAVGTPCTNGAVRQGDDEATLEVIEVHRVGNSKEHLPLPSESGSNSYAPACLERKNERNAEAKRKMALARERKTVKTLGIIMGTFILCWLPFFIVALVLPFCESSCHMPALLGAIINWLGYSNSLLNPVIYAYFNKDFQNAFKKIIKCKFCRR
Source text: High affinity for the serotonin 5-HT1A receptor was established by testing the claimed compounds ability to displace [^3 H] 8-OHDPAT (dipropylaminotetralin) from the 5HT1A serotonin receptor following the procedure of Hall et al., J. Neurochem. 44 1685 (1985). […] The anxiolytic activity of buspirone is believed to be, at least partially, due to its 5-HT1A receptor affinity (Vander Maclen et al., Eur. J. Pharmacol. 1986, 129 (1-2) […].

dopamine D-2 receptor = molecular target: T2, dopamine D-2 receptor (Rattus norvegicus, UniProt P61169); experiment: dopamine D-2 receptor binding, displacement of 3H-spiroperidol, homogenized limbic brain tissue
T2 construct: from tissue; host or cells: homogenized limbic brain tissue
Description: High affinity for the dopamine D-2 receptor was established by the standard experimental test procedure of Fields et al., Brain Res., 136 578 (1977) and Yamamura et al., eds., Neurotransmitter Receptor Binding, Raven Press, N.Y. (1978) wherein homogenized limbic brain tissue is incubated with ^3 H-spiroperidol and various concentrations of test compound, filtered and washed and shaken with Hydrofluor scintillation cocktail (National Diagnostics) and counted in a Packard 460 CD scintillation counter.

[2] = molecular target: T1, serotonin 5-HT1A receptor; details: in words; standard for anxiolytic activity; cited from earlier work

T2 sequence (P61169 whole entry): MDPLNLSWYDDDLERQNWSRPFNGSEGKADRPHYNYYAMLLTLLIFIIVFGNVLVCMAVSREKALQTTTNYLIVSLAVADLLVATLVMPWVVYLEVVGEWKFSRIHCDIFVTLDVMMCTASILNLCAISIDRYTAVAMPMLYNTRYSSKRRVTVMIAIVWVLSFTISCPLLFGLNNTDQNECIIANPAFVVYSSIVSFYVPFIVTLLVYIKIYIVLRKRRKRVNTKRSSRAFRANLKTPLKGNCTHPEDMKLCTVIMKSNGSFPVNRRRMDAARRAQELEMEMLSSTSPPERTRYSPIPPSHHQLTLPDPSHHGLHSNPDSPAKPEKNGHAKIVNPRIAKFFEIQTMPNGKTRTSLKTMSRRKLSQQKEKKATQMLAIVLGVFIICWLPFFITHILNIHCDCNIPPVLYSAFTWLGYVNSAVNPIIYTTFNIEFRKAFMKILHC

| Compound | inhibition at 1 µM ([1]; at 1 μM) | inhibition at 1 µM (dopamine D-2 receptor) | further results |
| --- | --- | --- | --- |
| O=C1CC2(CCCC2)CC(=O)N1CCCCNCC1COc2ccccc2O1 (single isomer, unassigned) [-(MDL) 72832] |  |  | binding at the 5-HT1A receptor site relative to the dextro rotatory isomer (5-HT1A receptor; ratio to dextro rotatory isomer): 32 times |
| O=C1C2CC(C(=O)N1CCCCNCC1COc3ccccc3O1)C1C2C2C3CC4C2C4C31 (stereo not shown) [Example 1, Decahydro-3-[4-[(2,3-dihydro-1,4-benzodioxan-2-ylmethyl)amino]butyl]-1,5-methano-6,7,9-metheno-2H-pentaleno[1,2-d]azepine-2,4(3H)-dione] | 96% | 100% |  |
| O=C1C2C(C(=O)N1CCCCNCC1COc3ccccc3O1)C1C3CC4C(C32)C41 (stereo not drawn) [Example 2, Endo-2-[4-[(2,3-dihydro-1,4-benzodioxan-2-ylmethyl)amino]butyl]octahydro-4,5,7-metheno-1H-pentaleno[1,2-c]pyrrole-1,3(2H)-dione] | 96% | 100% |  |
| O=C1CC2(CCCC2)CC(=O)N1CCCCN1CCN(c2ncccn2)CC1 [buspirone] |  |  | affinity for the 5-HT1A serotonin receptor subtype [2]: potent affinity |
| O=C1C2C3C=CC(C4C=CC43)C2C(=O)N1CCCCNCC1COc2ccccc2O1 (stereo not shown) [Example 4, 2-[4-[(2,3-Dihydro-1,4-benzodioxan-2-ylmethyl)amino]butyl]hexahydro-4,7-etheno-1H-cyclobut[f]isoindole-1,3-(2H)-dione] | 100% | 100% |  |
| O=C1C2C3C=CC(C4C=CC43)C2C(=O)N1CCNCC1COc2ccccc2O1 (stereo not shown) [Example 7, 2-[2-[(2,3-Dihydro-1,4-benzodioxan-2-ylmethyl)amino]ethyl]hexahydro-4,7-etheno-1H-cyclobut[f]isoindole-1,3-(2H)-dione] |  | 54% | inhibition at 0.1 µM [1]: 92% |
| O=C1C2CC(C(=O)N1CCNCC1COc3ccccc3O1)C1C2C2C3CC4C2C4C31 (stereo not shown) [Example 8, Decahydro-3-[2-[(2,3-dihydro-1,4-benzodioxan-2-ylmethyl)amino]ethyl]-1,5-methano-6,7,9-metheno-2H-pentaleno[1,2d]azepine-2,4(3H)-dione] |  | 89% | inhibition at 0.1 µM [1]: 100% |
| O=C1CC2(CCCC2)CC(=O)N1CCCCNCC1COc2ccccc2O1 (stereo not shown) [MDL 72832, 8-[4-(1,4-benzodioxan-2-ylmethylamino)butyl]-8-azaspiro[4.5]decane-7,9-dione] |  |  | 5-HT1A receptor ligand character (5-HT1A receptor; in words): selective and stereospecific |
| O=C1C2C(C(=O)N1CCCCNCC1COc3ccccc3O1)C1C3CC4C(C32)C41 (stereo not drawn) [Example 3, Exo-2-[4-[(2,3-dihydro-1,4-benzodioxan-2-ylmethyl)amino]butyl]octahydro-4,5,7-metheno-1H-pentaleno[1,2c]pyrrole-1,3(2H)-dione] |  |  | 5-HT1A Binding (% Inhibition at 1 μM) ([1]; at 1 μM): 94%; D-2 Binding (% Inhibition at 1 μM) (dopamine D-2 receptor; at 1 μM): 100% |
| CC1(C)[C@@H]2CC[C@@]1(C)C(=O)N(CCNCC1COc3ccccc3O1)C2=O (stereo partly shown) [Example 6] |  | 61% | inhibition at 0.1 µM [1]: 52% |
| O=C1C2C3C=CC(C4CC34)C2C(=O)N1CCCCNCC1COc2ccccc2O1 (stereo not shown) [Example 5] | 100% | 100% |  |
